From ChEMBL document CHEMBL5576124, “Discovery of an Exceptionally Orally Bioavailable and Potent HPK1 PROTAC with Enhancement of Antitumor Efficacy of Anti-PD-L1 Therapy” (J Med Chem, 2024)
Calls of active or inactive are those of the source. No cut-off for these calls is given here.

Legend:
[1] = biological target: T1, Protein cereblon/Mitogen-activated protein kinase kinase kinase kinase 1 (Homo sapiens, UniProt Q92918+Q96SW2); test: PROTAC activity at CRBN/HPK1 in human Jurkat cells assessed as degradation of HPK1 protein incubated for 24 hrs by Western blotting analysis; assay type: cell-based
Target sequence in this assay (Q92918 whole entry): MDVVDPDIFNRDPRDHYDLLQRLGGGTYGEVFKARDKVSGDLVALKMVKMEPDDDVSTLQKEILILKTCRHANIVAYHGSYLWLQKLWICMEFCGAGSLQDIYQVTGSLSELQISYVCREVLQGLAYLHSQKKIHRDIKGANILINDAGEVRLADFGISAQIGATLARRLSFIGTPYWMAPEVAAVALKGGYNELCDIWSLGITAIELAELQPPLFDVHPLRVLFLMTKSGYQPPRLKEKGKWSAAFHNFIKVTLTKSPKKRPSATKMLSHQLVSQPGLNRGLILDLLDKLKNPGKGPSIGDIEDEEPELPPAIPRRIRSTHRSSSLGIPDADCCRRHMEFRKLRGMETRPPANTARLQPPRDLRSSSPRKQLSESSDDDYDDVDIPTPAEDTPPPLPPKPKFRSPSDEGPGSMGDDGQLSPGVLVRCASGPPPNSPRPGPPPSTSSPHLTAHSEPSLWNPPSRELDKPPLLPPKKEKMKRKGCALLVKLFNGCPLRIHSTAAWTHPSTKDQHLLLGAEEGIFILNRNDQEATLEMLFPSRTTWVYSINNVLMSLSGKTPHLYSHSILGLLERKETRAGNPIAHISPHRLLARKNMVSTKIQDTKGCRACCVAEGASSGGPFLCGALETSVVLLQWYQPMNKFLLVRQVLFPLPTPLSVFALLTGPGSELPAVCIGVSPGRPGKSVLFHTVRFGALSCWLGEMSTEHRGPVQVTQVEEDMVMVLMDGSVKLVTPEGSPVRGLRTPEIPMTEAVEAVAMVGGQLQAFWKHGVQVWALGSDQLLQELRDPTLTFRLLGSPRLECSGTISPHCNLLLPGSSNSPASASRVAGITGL
Target sequence in this assay (Q96SW2 whole entry): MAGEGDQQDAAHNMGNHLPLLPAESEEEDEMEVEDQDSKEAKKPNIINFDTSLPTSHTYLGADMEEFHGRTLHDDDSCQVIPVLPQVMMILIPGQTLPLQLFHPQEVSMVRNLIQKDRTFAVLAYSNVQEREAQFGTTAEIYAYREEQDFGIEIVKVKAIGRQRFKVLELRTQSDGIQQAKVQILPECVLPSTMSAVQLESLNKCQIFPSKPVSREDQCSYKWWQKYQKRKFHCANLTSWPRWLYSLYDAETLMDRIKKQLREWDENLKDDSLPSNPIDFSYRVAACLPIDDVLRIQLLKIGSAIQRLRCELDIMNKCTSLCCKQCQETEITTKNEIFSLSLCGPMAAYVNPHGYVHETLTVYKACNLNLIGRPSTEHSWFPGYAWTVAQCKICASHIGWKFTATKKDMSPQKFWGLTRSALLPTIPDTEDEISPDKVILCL

[2] = biological target: T1, Protein cereblon/Mitogen-activated protein kinase kinase kinase kinase 1; test: PROTAC activity at CRBN/HPK1 in human Jurkat cells assessed as maximal degradation of HPK1 protein incubated for 24 hrs by Western blotting analysis relative to control; assay type: cell-based
Target sequence in this assay (Q92918 whole entry, looked up): as the sequence (Q92918 whole entry) above
Target sequence in this assay (Q96SW2 whole entry, looked up): as the sequence (Q96SW2 whole entry) above

[3] = Tmax in Sprague-Dawley rat at 10 mg/kg,po measured upto 24 hrs by LC-MS analysis; assay type: ADME, organism-based; conditions: in vivo
[4] = Cmax in Sprague-Dawley rat at 10 mg/kg,po measured upto 24 hrs by LC-MS analysis; assay type: ADME, organism-based; conditions: in vivo
[5] = AUC (0 to t) in Sprague-Dawley rat at 10 mg/kg,po measured upto 24 hrs by LC-MS analysis; assay type: ADME, organism-based; conditions: in vivo
[6] = MRT in Sprague-Dawley rat at 10 mg/kg,po measured upto 24 hrs by LC-MS analysis; assay type: ADME, organism-based; conditions: in vivo
[7] = Stability in human liver microsomes assessed as parent compound remaining; assay type: ADME, Microsome
[8] = Stability in human liver microsomes assessed as parent compound remaining measured after 15 mins; assay type: ADME, Microsome; conditions: read-out: Stability
[9] = Stability in human liver microsomes assessed as parent compound remaining measured after 30 mins; assay type: ADME, Microsome; conditions: read-out: Stability
[10] = Stability in human liver microsomes assessed as parent compound remaining measured after 60 mins; assay type: ADME, Microsome; conditions: read-out: Stability
[11] = Stability in mouse liver microsomes assessed as parent compound remaining measured after 5 mins; assay type: ADME, Microsome; conditions: read-out: Stability
[12] = Stability in mouse liver microsomes assessed as parent compound remaining measured after 30 mins; assay type: ADME, Microsome; conditions: read-out: Stability
[13] = Stability in mouse liver microsomes assessed as parent compound remaining measured after 60 mins; assay type: ADME, Microsome; conditions: read-out: Stability
[14] = Metabolic stability in human liver microsomes assessed as half life; assay type: ADME, Microsome
[15] = Metabolic stability in human liver microsomes assessed as intrinsic clearance; assay type: ADME, Microsome; conditions: read-out: CLH
[16] = Metabolic stability in human liver microsomes assessed as microsomal intrinsic clearance; assay type: ADME, Microsome; conditions: read-out: CLH
[17] = Metabolic stability in human liver microsomes assessed as hepatic extraction ratio; assay type: ADME, Microsome; conditions: read-out: ERH
[18] = Metabolic stability in mouse liver microsomes assessed as intrinsic clearance; assay type: ADME, Microsome; conditions: read-out: CLH
[19] = Metabolic stability in mouse liver microsomes assessed as hepatic extraction ratio; assay type: ADME, Microsome; conditions: read-out: ERH
[20] = biological target: T1, Protein cereblon/Mitogen-activated protein kinase kinase kinase kinase 1; test: PROTAC activity at CRBN/HPK1 in human Jurkat cells assessed as degradation of HPK1 protein at 1 uM preincubated with MG132 followed by compound addition incubated for 24 hrs by Western blotting analysis; assay type: cell-based
Target sequence in this assay (Q92918 whole entry, looked up): as the sequence (Q92918 whole entry) above
Target sequence in this assay (Q96SW2 whole entry, looked up): as the sequence (Q96SW2 whole entry) above

[21] = biological target: T1, Protein cereblon/Mitogen-activated protein kinase kinase kinase kinase 1; test: PROTAC activity at CRBN/HPK1 in human Jurkat cells assessed as degradation of HPK1 protein at 1 uM preincubated with MLN4924 followed by compound addition incubated for 24 hrs by Western blotting analysis; assay type: cell-based
Target sequence in this assay (Q92918 whole entry, looked up): as the sequence (Q92918 whole entry) above
Target sequence in this assay (Q96SW2 whole entry, looked up): as the sequence (Q96SW2 whole entry) above

[22] = biological target: T1, Protein cereblon/Mitogen-activated protein kinase kinase kinase kinase 1; test: PROTAC activity at CRBN/HPK1 in human Jurkat cells assessed as degradation of HPK1 protein at 1 uM preincubated with thalidomide followed by compound addition incubated for 24 hrs by Western blotting analysis; assay type: cell-based
Target sequence in this assay (Q92918 whole entry, looked up): as the sequence (Q92918 whole entry) above
Target sequence in this assay (Q96SW2 whole entry, looked up): as the sequence (Q96SW2 whole entry) above

[23] = biological target: T1, Protein cereblon/Mitogen-activated protein kinase kinase kinase kinase 1; test: PROTAC activity at CRBN/HPK1 in human Jurkat cells assessed as degradation of HPK1 protein at 1 uM preincubated with cycloheximide followed by compound addition incubated for 4 hrs by Western blotting analysis; assay type: cell-based
Target sequence in this assay (Q92918 whole entry, looked up): as the sequence (Q92918 whole entry) above
Target sequence in this assay (Q96SW2 whole entry, looked up): as the sequence (Q96SW2 whole entry) above

Jurkat [24] = test: Immunostimulatory activity in anti-CD3/CD28 induced human Jurkat cells assessed as increase in IFN-gamma release incubated for 24 hrs by ELISA; assay type: functional, cell-based
Jurkat [25] = test: Immunostimulatory activity in anti-CD3/CD28 induced human Jurkat cells assessed as increase in IL-2 release at 10 to 10000 nM incubated for 24 hrs in presence of PGE2 and NECA by ELISA; assay type: functional, cell-based; conditions: dose 10-10000 nM
Jurkat [26] = test: Immunostimulatory activity in anti-CD3/CD28 induced human Jurkat cells assessed as increase in IFN-gamma at 10 to 10000 nM incubated for 24 hrs in presence of PGE2 and NECA by ELISA; assay type: functional, cell-based; conditions: dose 10-10000 nM
T-cell line [27] = test: Immunostimulatory activity in human T cell assessed as increase in IL-2 secretion; assay type: functional, cell-based
T-cell line [28] = test: Immunostimulatory activity in human T cell assessed as fold increase in IL-2 secretion; assay type: functional
T-cell line [29] = test: Immunostimulatory activity in human T cell assessed as increase in IL-2 secretion at 10 uM relative to control; assay type: functional
Jurkat [30] = test: Antiproliferative activity against human Jurkat cells assessed as inhibition of cell growth at 4 to 10000 nM incubated for 3 days by CCK-8 assay; assay type: functional, cell-based; conditions: dose 4-10000 nM, time 3.0 day
Jurkat [31] = test: Immunostimulatory activity in anti-CD3/CD28 induced human Jurkat cells assessed as downregulation of SLP76 phosphorylation by Western blotting analysis; assay type: functional, cell-based
Jurkat [32] = test: Immunostimulatory activity in anti-CD3/CD28 induced human Jurkat cells assessed as downregulation of NF-kappaB expression by Western blotting analysis; assay type: functional, cell-based
Jurkat [33] = test: Immunostimulatory activity in anti-CD3/CD28 induced human Jurkat cells assessed as downregulation of NF-kappaB phosphorylation by Western blotting analysis; assay type: functional, cell-based
Jurkat [34] = test: Immunostimulatory activity in anti-CD3/CD28 induced human Jurkat cells assessed as upregulation of ERK expression by Western blotting analysis; assay type: functional, cell-based
[35] = Tmax in ICR mouse at 1 mg/kg,iv measured upto 24 hrs by LC-MS analysis; assay type: ADME, organism-based; conditions: in vivo
[36] = Cmax in ICR mouse at 1 mg/kg,iv measured upto 24 hrs by LC-MS analysis; assay type: ADME, organism-based; conditions: in vivo
[37] = AUC (0 to t) in ICR mouse at 1 mg/kg,iv measured upto 24 hrs by LC-MS analysis; assay type: ADME, organism-based; conditions: in vivo
[38] = AUC (0 to t) in ICR mouse at 10 mg/kg,po measured upto 24 hrs by LC-MS analysis; assay type: ADME, organism-based; conditions: in vivo
[39] = Toxicity in BALB/c mouse implanted with mouse CT26 cells assessed as change in body weight at 25 mg/kg,po administrated once daily for 15 days; assay type: organism-based; conditions: in vivo, 360 h, time 15 day
[40] = biological target: T1, Protein cereblon/Mitogen-activated protein kinase kinase kinase kinase 1; test: PROTAC activity at CRBN/HPK1 in human Jurkat cells assessed as degradation of HPK1 protein by Western blotting analysis; assay type: cell-based
Target sequence in this assay (Q92918 whole entry, looked up): as the sequence (Q92918 whole entry) above
Target sequence in this assay (Q96SW2 whole entry, looked up): as the sequence (Q96SW2 whole entry) above

[41] = biological target: T1, Protein cereblon/Mitogen-activated protein kinase kinase kinase kinase 1; test: PROTAC activity at CRBN/HPK1 in human Jurkat cells assessed as downregulation of PFDN5 expression by Western blotting analysis; assay type: cell-based
[42] = biological target: T1, Protein cereblon/Mitogen-activated protein kinase kinase kinase kinase 1; test: PROTAC activity at CRBN/HPK1 in human Jurkat cells assessed as downregulation of GLK expression by Western blotting analysis; assay type: cell-based
[43] = biological target: T1, Protein cereblon/Mitogen-activated protein kinase kinase kinase kinase 1; test: PROTAC activity at CRBN/HPK1 in human Jurkat cells assessed as downregulation of KHS expression by Western blotting analysis; assay type: cell-based
[44] = biological target: T1, Protein cereblon/Mitogen-activated protein kinase kinase kinase kinase 1; test: PROTAC activity at CRBN/HPK1 in human Jurkat cells assessed as upregulation of PCGF6 expression by Western blotting analysis; assay type: cell-based
[45] = biological target: T1, Protein cereblon/Mitogen-activated protein kinase kinase kinase kinase 1; test: PROTAC activity at CRBN/HPK1 in human Jurkat cells assessed as upregulation of GCK expression by Western blotting analysis; assay type: cell-based
[46] = biological target: T1, Protein cereblon/Mitogen-activated protein kinase kinase kinase kinase 1; test: PROTAC activity at CRBN/HPK1 in human Jurkat cells assessed as upregulation of HGK expression by Western blotting analysis; assay type: cell-based

- DC50 [1]: 4.5 nM
- Emax [2]: 80.5%
- Tmax [3]: 1 h
- Cmax [4]: 2090 ng/mL
- AUC(0-t) at 24 h [5]: 16400 ng·h/mL
- MRT [6]: 9.62 h
- Stability [7]: 100%
- remaining at 0.25 h [8]: 101%
- remaining at 0.5 h [9]: 98.3%
- remaining at 1 h [10]: 94.5%
- remaining at 5 min [11]: 100%
- remaining at 0.5 h [12]: 70.3%
- remaining at 1 h [13]: 59.4%
- half-life [14]: 16.5 h
- microsomal CLint [15]: 1.4 µL/min/mg
- CLint scaled [16]: 5.54 mL/min/kg
- hepatic extraction ratio [17]: 0.058
- microsomal CLint [18]: 18.4 µL/min/mg
- hepatic extraction ratio [19]: 0.444
- Activity [20]: inactive
- Activity [21]: inactive
- Activity [22]: Active
- Activity [23]: Active
- EC50 (T-cell line [27]): 12.9 nM
- Tmax [35]: 4.8 min
- Cmax [36]: 3000 ng/mL
- AUC(0-t) at 24 h [37]: 16800 ng·h/mL
- AUC(0-t) at 24 h [38]: 137000 ng·h/mL
- Activity [40]: Active
- Activity [41]: Active
- Activity [42]: Active
- Activity [43]: Active
- Activity [44]: Active
- Activity [45]: inactive
- Activity [46]: inactive
SMILES: Cc1cc(-c2c[nH]c3ncc(-c4ccc(C5CCN(C6CN(c7ccc8c(c7)C(=O)N(C7CCC(=O)NC7=O)C8=O)C6)CC5)cc4)nc23)ccc1C(=O)N(C)C (stereo unspecified)
- Activity (Jurkat [24]): Dose-Dependent Effect
- Activity (Jurkat [25]): inactive
- Activity (Jurkat [26]): inactive
- fold change (FC) (T-cell line [28]): 70
- Activity (T-cell line [29]): 2361.07%
- Activity (Jurkat [30]): inactive
- Activity (Jurkat [31]): Active
- Activity (Jurkat [32]): Active
- Activity (Jurkat [33]): Active
- Activity (Jurkat [34]): Active
- Activity [39]: Non-Toxic
